What all share (assay): NCI-60 cell line screen, 48 h
Test [1] relates to A549 NSCLC.
In test [2] the test system is SF-268 CNS.
In test [3] the test system is K-562 leukemia.
Test [4] deals with OVCAR-3 ovarian.
For test [5], the system named is COLO 205 colon.
Test [6] relates to SNB-75 CNS.
Test [7] deals with HT29 colon.
Test [8] deals with RPMI-8226 leukemia.
In test [9] the test system is NCI-H23 lung.
Test [10] relates to CAKI-1 renal.

Values joined by “and” are separate entries in the source; they are usually repeats but may differ in a detail not shown here. Equal values may be shown once.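 Following 48 hours of exposure in 96-well plates, responses at five concentrations were used to interpolate endpoints linearly. GI50 = concentration required for 50% inhibition of growth. The concentration for full growth arrest is given as TGI.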

Consider `COc1cccc(/C=C2\CCc3ccccc3C2=O)c1`, for which the GI50 in test [1] is 20.1 µM; in [2], 14.8 µM; in [3] it was 3.29 µM; in test [4], 12.9 µM; in test [5], 19.9 µM; in [6], 16.9 µM. The GI50 was 5.89 µM in test [7], 2.89 µM in [8], 16.3 µM in [9] and 11.3 µM in test [10]. Moreover, the TGI in test [1] turned out to be 60.1 µM; in test [2], 29.1 µM; in [3] it was 57.1 µM; in test [4] it was 26.2 µM; in [5], 34.1 µM; in [6] it was 36 µM. The TGI is 19.4 µM in test [7], 8.94 µM in [8], 40.1 µM in test [9] and 36.4 µM in [10].

On to `NCCCCCCCCCn1c2c(c3ccccc3c1=O)C(=O)c1ccccc1-2`, for which the GI50 in [1] was 9.75 µM; in [2], 11.8 µM; in [3], 7.42 µM; in [4] it was 9.46 µM; in test [5] it was 10 µM; in test [6], 10.7 µM. Also, the GI50 in test [7] was 8.5 µM; in [8], 10.4 µM; in test [9] it was 7.94 µM; in test [10], 9.15 µM. Moreover, the TGI in test [1] is over 50 µM; in test [2] it was 31.5 µM; in test [3], 32.3 µM; in test [4] it was 18.8 µM; in [5], 25 µM; in test [6], 21.7 µM. For the same compound, the TGI in [7] stood at 27.1 µM; in [8] it was 30.8 µM; in test [9] it was 17 µM; in test [10], 18.8 µM.

For `O=C1c2ccccc2-c2ccccc2C1(Cl)Cl`, the GI50 in [1] was 1.49 µM; in test [2] it was 1.28 µM; in [3] it was 0.43 µM; in test [4], 1.41 µM; in [5], 1.81 µM; in [6], 1.62 µM. In addition, the GI50 in test [7] is 2.52 µM; in test [8], 0.527 µM; in test [9], 1.57 µM; in [10], 1.17 µM. In addition, the TGI in [1] amounted to 3.21 µM; in test [2], 2.59 µM; in [3] it was 5.46 µM; in test [4], 2.71 µM; in test [5], 3.47 µM; in test [6], 3 µM. In addition, the TGI stood at 7.57 µM in test [7], 2.63 µM in test [8], 4.25 µM in test [9] and 2.63 µM in test [10].

As to `COc1cc2oc(-c3ccc(O)cc3)cc(=O)c2c(OC)c1O`, the TGI was over 100 µM in test [1]; over 100 µM in test [2]; over 100 µM in test [3]; over 100 µM in [4]; over 100 µM in [5]; 55.1 µM in test [6]. Besides, the TGI in test [7], in [8], in [9] and in test [10] was over 100 µM throughout.

As to `O=C(O)CCCc1cc2c(s1)-c1cccc3cccc-2c13`, the TGI in [1] is over 100 µM; in test [2], over 100 µM; in [3], over 100 µM; in test [4], 49.5 µM; in [5], 42.3 µM; in test [6] it was over 100 µM. For the same compound, the TGI was over 100 µM in test [7], 72.5 µM in [8], 41.2 µM in test [9] and over 100 µM in test [10].

As to `c1ccc(N2N=NC3C4CC(C5c6ccccc6C45)C32)cc1` (centres undefined), the TGI in test [1], in test [2], in [3], in [4], in test [5] and in [6] was over 100 µM throughout. Further, the TGI was 40.3 µM in [7], over 100 µM in [8], 75.9 µM in test [9] and over 100 µM in test [10].

Take `Cc1cc2nc3c4cc([N+](=O)[O-])ccc4n(CCN(C)C)c3nc2cc1C`: the GI50 is 0.397 µM in [1]; 0.787 µM in test [2]; 0.366 µM in test [3]; 0.59 µM in test [4]; 0.363 µM in test [5]; 0.842 µM in [6]. Moreover, the GI50 in [7] was 0.387 µM; in test [8], 0.459 µM; in [9] it was 0.501 µM; in test [10] it was 0.334 µM. In addition, the TGI in [1] was 3.67 µM; in test [2], 6.92 µM; in test [3], over 100 µM; in [4], 5.23 µM; in [5] it was 2.48 µM; in test [6] it was 2.7 µM. Also, the TGI came to 2.33 µM in test [7], 3.19 µM in [8], 2.58 µM in [9] and 2.21 µM in test [10].

Consider `N/C(=N/N=C/c1cccc(F)c1)NO`, for which the TGI was 98.7 µM in test [1]; 68.7 µM in test [2]; over 100 µM in test [3]; over 100 µM in [4]; over 100 µM in [5]; over 100 µM in test [6]. Further, the TGI was over 100 µM in test [7], over 100 µM in [8], over 100 µM in [9] and 91.7 µM in test [10].

Take `CSCC(COC(C)=O)(CSC)c1ccncc1`: the TGI in test [1], in test [2], in [3], in [4], in test [5] and in [6] was over 100 µM throughout. Also, the TGI in test [7], in test [8], in test [9] and in [10] was over 100 µM throughout.

Consider `O=C(CC(=O)N1N=C(c2ccccc2)C(N=Nc2ccccc2Cl)C1=O)Nc1ccccc1Cl` (centres undefined), for which the TGI in test [1] is over 100 µM; in test [2], over 100 µM; in test [3], over 100 µM; in test [4], 81.3 µM; in [5] it was over 100 µM; in [6] it was 49.9 µM. Further, the TGI in test [7] is 44.6 µM; in test [8] it was 57.2 µM; in test [9], over 100 µM; in test [10], over 100 µM.

On to `O=[N+]([O-])c1cccc([I+]c2ccccc2)c1`, for which the GI50 in test [1] is 3.46 µM; in test [2] it was 7.3 µM; in [3], 3.26 µM; in test [4], 11.3 µM; in test [5] it was 10.1 µM; in test [6], 6.56 µM. Besides, the GI50 in test [7] is 11.9 µM; in test [8], 4.09 µM; in test [9], 10.9 µM; in test [10], 3.42 µM. Also, the TGI stood at 24.1 µM in test [1]; 21.2 µM in [2]; 32.1 µM in [3]; 26.8 µM in test [4]; 33.6 µM in test [5]; 20.8 µM in test [6]. Also, the TGI stood at 31.2 µM in test [7], 30.7 µM in test [8], 31.2 µM in test [9] and 49 µM in test [10].

For `CC(C)OC(=O)c1cccnc1/C=N/O`, the TGI in test [1], in [2], in test [3], in [4], in test [5] and in test [6] was over 100 µM each time. In addition, the TGI in test [7], in [8], in test [9] and in [10] was over 100 µM in each case.

Consider `COc1ccc(/C=C/C(=O)c2ccccc2)cc1OC`, for which the GI50 in test [1] was 30.5 µM; in test [2], 19.7 µM; in [3], 3.95 µM; in test [4], 7.38 µM; in test [6] it was 16.7 µM; in test [7], 3.86 µM. Further, the GI50 in test [8] was 3.93 µM; in test [9], 15.8 µM; in test [10], 14.1 µM. Further, the TGI is 47.7 µM and > 100 µM in test [1]; 36.7 µM and 64.9 µM in [2]; over 100 µM in test [3]; 25.3 µM and 26.8 µM in test [4]; 31.6 µM and 34.8 µM in test [5]; 28.9 µM and 35.1 µM in test [6]. Moreover, the TGI was 22.2 µM and 16.2 µM in test [7]; > 100 µM and 25.3 µM in test [8]; 50.1 µM and 41.3 µM in [9]; 38.2 µM and 35.6 µM in test [10].

Take `Clc1ccc(Nc2ncnc3c2sc2ncccc23)c(Cl)c1`: the GI50 in [1] is under 0.01 µM; in test [2], 0.0246 µM; in test [3], 0.27 µM; in [4], 1 µM; in test [5] it was 0.0573 µM; in test [6], 0.0689 µM. In addition, the GI50 was 0.0462 µM in test [7], 0.0326 µM in test [8], under 0.01 µM in test [9] and under 0.0107 µM in test [10]. In addition, the TGI is over 100 µM in [1]; over 100 µM in test [2]; over 100 µM in test [3]; over 100 µM in test [4]; over 25.8 µM in test [5]; over 30.9 µM in [6]. For the same compound, the TGI in test [7] was over 100 µM; in test [8] it was over 100 µM; in [9], 1.47 µM; in test [10] it was over 33.9 µM.

With `NC(CSC1(c2ccc(Cl)cc2)c2ccccc2-c2ccccc21)C(=O)O` (centres undefined), the TGI in test [1] was over 100 µM; in [2], 50.2 µM; in test [3], over 100 µM; in [4], over 100 µM; in test [5] it was 28.9 µM; in test [6], 62.9 µM. Moreover, the TGI is over 100 µM in test [7], over 100 µM in test [8], 41.1 µM in test [9] and over 100 µM in test [10].

The record behind these values is PubChem BioAssay (NCI).
